Read-outs that look alike come from different tables or passages of the source. Starred links: 1 amine or outer side, 2 acyl side, 3 side chain; linkers in the order of their positions; H or OH if unused. Positions of bridges follow the written chain, without caps; N, C: chain ends. Non-standard residues stand in square brackets, D forms with d. Residues, ends and D or L forms follow the SMILES beside them. *: point of attachment. Phe(3-CH2NH2) = O=C([C@H](Cc1cccc(CN[*:3])c1)N[*:1])[*:2]; 2Furoyl(5-aminomethyl) = O=C(c1ccc(CN[*:1])o1)[*:2]; X58 = O=C([C@@H]1[C@H](OCC=[*:3])CCN1[*:1])[*:2]; Ala(imidazol-2-yl) = N[C@@H](Cc1ncc[nH]1)C(=O)O; Trp(5-F) = N[C@@H](Cc1c[nH]c2ccc(F)cc12)C(=O)O; Acetyl(2-(4-imidazolyl)) = O=C(Cc1c[nH]cn1)*; X3 = O=C(CCSCc1cc(F)cc(CSCCN[*:1])c1)[*:2]; Lys(Me3) = C[N+](C)(C)CCCC[C@H](N)C(=O)O; Pro(cis-4-F) = O=C(O)[C@@H]1C[C@H](F)CN1; X12 = O=C([C@H](CCCCC=[*:3])N[*:1])[*:2]; X4 = O=C(CCSCc1cccc(CSCCN[*:1])c1)[*:2]; X64 = C[C@H](N[*:1])c1ncc(C(=O)[*:2])s1; mXylylene = c1cc(C[*:1])cc(C[*:2])c1; AEF = NCCOc1ccc(C[C@H](N)C(=O)O)cc1; Adipoyl = O=C(CCCCC(=O)[*:2])[*:1]; Glutaryl = O=C(CCCC(=O)[*:2])[*:1]; Lys(Me2) = CN(C)CCCC[C@H](N)C(=O)O; aThr = C[C@H](O)[C@H](N)C(=O)O; X59 = Fc1ccc(C[*:2])cc1C[*:1]; Suc = O=C(CCC(=O)[*:2])[*:1]; αMeP = C[C@@]1(C(=O)O)CCCN1; Dap = NC[C@H](N)C(=O)O; X2 = O=C(C[*:2])[*:1]; AEA = NCCOCC(=O)O; Mpa = O=C(O)CCS
Biological target: PCSK9 (Homo sapiens (Human), UniProt Q8NBP7)
Sequence (Q8NBP7 153-692): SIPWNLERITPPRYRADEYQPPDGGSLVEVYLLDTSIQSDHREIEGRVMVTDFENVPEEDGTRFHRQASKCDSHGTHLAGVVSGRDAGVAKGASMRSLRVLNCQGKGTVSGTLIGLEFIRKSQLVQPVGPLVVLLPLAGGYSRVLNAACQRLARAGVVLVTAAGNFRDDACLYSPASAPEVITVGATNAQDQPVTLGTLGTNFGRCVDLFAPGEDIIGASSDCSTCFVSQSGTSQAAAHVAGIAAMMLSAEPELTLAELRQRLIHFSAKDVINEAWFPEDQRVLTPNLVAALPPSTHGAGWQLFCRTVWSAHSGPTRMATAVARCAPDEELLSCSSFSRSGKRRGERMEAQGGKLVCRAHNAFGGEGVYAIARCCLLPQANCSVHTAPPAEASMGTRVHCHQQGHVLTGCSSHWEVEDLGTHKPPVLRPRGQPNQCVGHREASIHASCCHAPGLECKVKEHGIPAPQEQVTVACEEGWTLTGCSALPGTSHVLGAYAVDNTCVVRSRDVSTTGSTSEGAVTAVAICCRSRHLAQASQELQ
Test: PCSK9 Alexa FRET Standard assay (displacement of AlexaFluor647 tagged cyclic peptide Reagent A)
Assay type: binding
Settings: 0.5 nM PCSK9, 20 nM AF cyclic peptide Reagent A
Outline: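 TR-FRET displacement: 0.5 nM biotinylated PCSK9 with 1.25 nM Strep-Eu and 20 nM AlexaFluor-tagged cyclic peptide (final) in 50 mM HEPES pH 7.4, 0.15 M NaCl, 5 mM CaCl2, 0.01% BSA, 0.01% P20, ≥2 h at room temperature. IC50 from sigmoidal fit, converted to Ki via peptide KD; falling Eu counts flagged false positives.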

[1] = PCSK9 Alexa FRET Standard assay, read-out: IC50

Row | Compound | IC50 [1] [µM] | further results
1 | COc1ccc(C[C@@H]2NC(=O)[C@H](Cc3ncc[nH]3)NC(=O)[C@H](CC(=O)O)NC(=O)[C@H](Cc3c[nH]c4ccc(F)cc34)NC(=O)[C@H](Cc3c[nH]c4ccc(F)cc34)NC(=O)[C@@H](C)NC(=O)[C@H](CCCCN(C)C)NC(=O)CCSCc3cccc(c3)CSCCNC(=O)[C@]3(C)CCCN3C2=O)cc1 [Compound 463] (cyclo(D[Ala(imidazol-2-yl)]Y(Me)[αMeP][X4][Lys(Me2)][dA][Trp(5-F)][Trp(5-F)])) | 0.1 to 1 | 
2 | COc1ccc(C[C@@H]2NC(=O)[C@H]([C@@H](C)O)NC(=O)[C@@H]3C[C@H](F)CN3C(=O)[C@H](Cc3c[nH]c4ccc(F)cc34)NC(=O)[C@H](Cc3c[nH]c4ccc(F)cc34)NC(=O)[C@@H](C)NC(=O)[C@H](CCCCN)NC(=O)[C@@H](NC(=O)Cc3cnc[nH]3)CC(=O)NCCOc3ccc(cc3)C[C@@H](C(N)=O)NC(=O)[C@]3(C)CCCN3C2=O)cc1 [Compound 106] ({Acetyl(2-(4-imidazolyl))}-DK[dA][Trp(5-F)][Trp(5-F)][Pro(cis-4-F)]TY(Me)[αMeP][AEF]-NH2; lactam 1-10) |  | IC50 (PCSK9 Alexa FRET Standard assay): 1 to 12.1 µM
3 | COc1ccc(C[C@@H]2NC(=O)[C@H](Cc3cnc[nH]3)NC(=O)[C@H](CC(=O)O)NC(=O)[C@H](Cc3c[nH]c4ccc(F)cc34)NC(=O)[C@H](Cc3c[nH]c4ccc(F)cc34)NC(=O)[C@@H](C)NC(=O)CCCCC(=O)NCCOc3ccc(cc3)C[C@@H](C(N)=O)NC(=O)[C@]3(C)CCCN3C2=O)cc1 [Compound 410] ([dA][Trp(5-F)][Trp(5-F)]DHY(Me)[αMeP][AEF]-NH2; linker N-8 via Adipoyl) | 1 to 12.1 | 
4 | C[C@@H]1NC(=O)[C@H](Cc2c[nH]c3ccc(F)cc23)NC(=O)[C@H](Cc2c[nH]c3ccc(F)cc23)NC(=O)[C@@H](C)NC(=O)[C@H](CCCCN)NC(=O)CCSCc2cccc(c2)CSC[C@@H](C(N)=O)NC(=O)[C@]2(C)CCCN2C(=O)[C@H](Cc2ccc(O)cc2)NC(=O)C2=CN=C1S2 [Compound 460] ([Mpa]K[dA][Trp(5-F)][Trp(5-F)][X64]Y[αMeP]C-NH2; linker 1-9 via mXylylene) | 0.00011 to 0.1 | 
5 | C[C@H]1NC(=O)[C@H](CCCCN)NC(=O)CCSCc2cccc(c2)CSC[C@@H](C(N)=O)NC(=O)[C@]2(C)CCCN2C(=O)[C@H](Cc2ccc(O)cc2)NC(=O)C2=CC=C(CNC(=O)[C@H](Cc3c[nH]c4ccc(F)cc34)NC(=O)[C@H](Cc3c[nH]c4ccc(F)cc34)NC1=O)O2 [Compound 429] ([Mpa]K[dA][Trp(5-F)][Trp(5-F)][2Furoyl(5-aminomethyl)]Y[αMeP]C-NH2; linker 1-9 via mXylylene) | 0.1 to 1 | 
6 | CO[C@H](C)[C@@H]1NC(=O)CCSCc2cccc(c2)CSC[C@@H](C(N)=O)NC(=O)[C@]2(C)CCCN2C(=O)[C@H](Cc2ccc(O)cc2)NC(=O)[C@H](Cc2cnc[nH]2)NC(=O)[C@H](CC(=O)O)NC(=O)[C@H](Cc2c[nH]c3ccc(F)cc23)NC(=O)[C@H](Cc2c[nH]c3ccc(F)cc23)NC(=O)CNC1=O [Compound 375] ([Mpa]T(Me)G[Trp(5-F)][Trp(5-F)]DHY[αMeP]C-NH2; linker 1-10 via mXylylene) | 21 to 50 | 
7 | COc1ccc(C[C@@H]2NC(=O)[C@H]([C@@H](C)O)NC(=O)[C@@H]3C[C@H](F)CN3C(=O)[C@H](Cc3c[nH]c4ccc(F)cc34)NC(=O)[C@H](Cc3c[nH]c4ccc(F)cc34)NC(=O)[C@@H](C)NC(=O)[C@H](CCCCN)NC(=O)[C@@H](NC(C)=O)CC(=O)NCc3cccc(c3)C[C@@H](C(N)=O)NC(=O)[C@]3(C)CCCN3C2=O)cc1 [Compound 077] (Ac-DK[dA][Trp(5-F)][Trp(5-F)][Pro(cis-4-F)]TY(Me)[αMeP][Phe(3-CH2NH2)]-NH2; lactam 1-10) | 21 to 50 | 
8 | COc1ccc(C[C@@H]2NC(=O)[C@H](Cc3cnc[nH]3)NC(=O)[C@H](CC(=O)O)NC(=O)[C@H](Cc3c[nH]c4ccc(F)cc34)NC(=O)[C@H](Cc3c[nH]c4ccc(F)cc34)NC(=O)[C@@H](C)NC(=O)[C@H](CNC(=O)COCCN)NC(=O)CCSCc3cccc(c3)CSCCNC(=O)[C@]3(C)CCCN3C2=O)cc1 [Compound 424] (cyclo(DHY(Me)[αMeP][X4][Dap](AEA)[dA][Trp(5-F)][Trp(5-F)])) | 0.00011 to 0.1 | 
9 | COc1ccc(C[C@@H]2NC(=O)[C@H]([C@@H](C)O)NC(=O)[C@@H]3C[C@H](F)CN3C(=O)[C@H](Cc3c[nH]c4ccc(F)cc34)NC(=O)[C@H](Cc3c[nH]c4ccc(F)cc34)NC(=O)[C@@H](C)NC(=O)CCCC(=O)NCCOc3ccc(cc3)C[C@@H](C(N)=O)NC(=O)[C@]3(C)CCCN3C2=O)cc1 [Compound 081] ([dA][Trp(5-F)][Trp(5-F)][Pro(cis-4-F)]TY(Me)[αMeP][AEF]-NH2; linker N-8 via Glutaryl) | 0.1 to 1 | 
10 | COc1ccc(C[C@@H]2NC(=O)[C@H]([C@@H](C)O)NC(=O)[C@@H]3C[C@H](F)CN3C(=O)[C@H](Cc3c[nH]c4ccc(F)cc34)NC(=O)[C@H](Cc3c[nH]c4ccc(F)cc34)NC(=O)[C@@H](C)NC(=O)[C@H](CCCCN)NC(=O)[C@@H](NC(=O)Cc3cnc[nH]3)CC(=O)NCCOc3ccc(cc3)C[C@@H](C(N)=O)NC(=O)[C@]3(C)CCCN3C2=O)cc1 [Compound 105] ({Acetyl(2-(4-imidazolyl))}-DK[dA][Trp(5-F)][Trp(5-F)][Pro(cis-4-F)]TY(Me)[αMeP][AEF]-NH2; lactam 1-10) |  | IC50 (IC50, PCSK9 Alexa FRET Standard assay): 1 to 12.1 µM
11 | CO[C@@H](C)[C@@H]1NC(=O)[C@@H]2CCCN2C(=O)[C@H](Cc2c[nH]c3ccc(F)cc23)NC(=O)[C@H](Cc2c[nH]c3ccc(F)cc23)NC(=O)CNC(=O)[C@H](CCCCN)NC(=O)CCSCc2cccc(c2)CSCCNC(=O)[C@]2(C)CCCN2C(=O)[C@H](Cc2ccc(O)cc2)NC1=O [Compound 070] (cyclo(G[Trp(5-F)][Trp(5-F)]P[aThr](Me)Y[αMeP][X4]K)) | 21 to 50 | 
12 | COc1ccc(C[C@@H]2NC(=O)[C@H](Cc3cnc[nH]3)NC(=O)[C@H](CC(=O)O)NC(=O)[C@H](Cc3c[nH]c4cc(F)ccc34)NC(=O)[C@H](Cc3c[nH]c4ccc(F)cc34)NC(=O)[C@@H](C)NC(=O)[C@H](CCCCN)NC(=O)CCc3cn(nn3)-c3ccc(cc3)C[C@@H](C(N)=O)NC(=O)[C@]3(C)CCCN3C2=O)cc1 [Compound 368] | 21 to 50 | 
13 | COc1ccc(C[C@@H]2NC(=O)[C@H]([C@@H](C)O)NC(=O)[C@@H]3CCCN3C(=O)[C@H](Cc3c[nH]c4ccc(F)cc34)NC(=O)[C@H](Cc3c[nH]c4ccc(F)cc34)NC(=O)[C@@H](C)NC(=O)[C@H](CCCCN)NC(=O)CCSCc3cc(ccc3F)CSC[C@@H](C(N)=O)NC(=O)[C@]3(C)CCCN3C2=O)cc1 [Compound 069] ([Mpa]K[dA][Trp(5-F)][Trp(5-F)]PTY(Me)[αMeP]C-NH2; linker 1-10 via X59) | 21 to 50 | 
14 | CC(=O)N[C@H]1CCCC/C=C/CO[C@@H]2CCN(C(=O)[C@H](Cc3ccc(O)cc3)NC(=O)[C@H](Cc3cnc[nH]3)NC(=O)[C@H](CC(=O)O)NC(=O)[C@H](Cc3c[nH]c4ccc(F)cc34)NC(=O)[C@H](Cc3c[nH]c4ccc(F)cc34)NC(=O)CNC(=O)[C@H](CCCCN)NC1=O)[C@@H]2C(N)=O [Compound 469] (Ac-[X12]KG[Trp(5-F)][Trp(5-F)]DHY[X58]-NH2; staple (E) 1-9) | 21 to 50 | 
15 | COc1ccc(C[C@@H]2NC(=O)[C@H]([C@@H](C)O)NC(=O)[C@@H]3C[C@H](F)CN3C(=O)[C@H](Cc3c[nH]c4ccc(F)cc34)NC(=O)[C@H](Cc3c[nH]c4ccc(F)cc34)NC(=O)[C@@H](C)NC(=O)[C@H](CCCCN)NC(=O)CCC(=O)NCCOc3ccc(cc3)C[C@@H](C(N)=O)NC(=O)[C@]3(C)CCCN3C2=O)cc1 [Compound 098] (K[dA][Trp(5-F)][Trp(5-F)][Pro(cis-4-F)]TY(Me)[αMeP][AEF]-NH2; linker N-9 via Suc) | 21 to 50 | 
16 | C[C@@]12CCCN1C(=O)[C@H](Cc1ccc(O)cc1)NC(=O)CN1C(=O)[C@H](N=C(C3CCCCC3)c3ccccc31)NC(=O)[C@H](Cc1c[nH]c3ccc(F)cc13)NC(=O)[C@H](Cc1c[nH]c3ccc(F)cc13)NC(=O)CNC(=O)[C@H](CCCCN)NC(=O)CCSCc1cccc(c1)CSC[C@@H](C(N)=O)NC2=O [Compound 128] | 21 to 50 | 
17 | COc1ccc(C[C@@H]2NC(=O)[C@H]([C@@H](C)O)NC(=O)[C@@H]3C[C@H](F)CN3C(=O)[C@H](Cc3c[nH]c4ccc(F)cc34)NC(=O)[C@H](Cc3c[nH]c4ccc(F)cc34)NC(=O)[C@@H](C)NC(=O)[C@H](CCCCN)NC(=O)[C@@H](NC(C)=O)CNC(=O)COc3ccc(cc3)C[C@@H](C(N)=O)NC(=O)[C@]3(C)CCCN3C2=O)cc1 [Compound 094] (Ac-[Dap]K[dA][Trp(5-F)][Trp(5-F)][Pro(cis-4-F)]TY(Me)[αMeP]Y-NH2; linker 1-10 via X2) | 21 to 50 | 
18 | COc1ccc(C[C@@H]2NC(=O)[C@H](C(C)C)NC(=O)[C@@H]3CCCN3C(=O)[C@H](Cc3c[nH]c4ccc(F)cc34)NC(=O)[C@H](Cc3c[nH]c4ccc(F)cc34)NC(=O)[C@@H](C)NC(=O)[C@H](CCCCN)NC(=O)CCSCc3cccc(c3)CSC[C@@H](C(N)=O)NC(=O)[C@]3(C)CCCN3C2=O)cc1 [Compound 009] ([Mpa]K[dA][Trp(5-F)][Trp(5-F)]PVY(Me)[αMeP]C-NH2; linker 1-10 via mXylylene) | 21 to 50 | 
19 | COc1ccc(C[C@@H]2NC(=O)[C@H](Cc3ncc[nH]3)NC(=O)[C@H](CC(=O)O)NC(=O)[C@H](Cc3c[nH]c4ccc(F)cc34)NC(=O)[C@H](Cc3c[nH]c4ccc(F)cc34)NC(=O)[C@@H](C)NC(=O)[C@H](CCCC[N+](C)(C)C)NC(=O)CCSCc3cc(F)cc(c3)CSCCNC(=O)[C@]3(C)CCCN3C2=O)cc1 [Compound 462] (cyclo(D[Ala(imidazol-2-yl)]Y(Me)[αMeP][X3][Lys(Me3)][dA][Trp(5-F)][Trp(5-F)])) | 1 to 12.1 | 

— patent US11530244B2, “Cyclic polypeptides for PCSK9 inhibition” (priority 2018, dated 2022)
